Data: patent US11083725B2 (priority 2014, dated 2021)

System: NHBE cells
Assay: Biolog metabolic array: substrate use by NHBE cells with or without CA09 infection
Format: cell-based, human
Details: for Substrate use, 590 nm absorbance normalized to zero hour, 0 hr: Biolog PMM2, 0 hr; for Substrate use, 590 nm absorbance normalized to zero hour, 1 hr: Biolog PMM2, 1 hr; for Substrate use, 590 nm absorbance normalized to zero hour, 5 hr: Biolog PMM2, 5 hr; for Substrate use, 590 nm absorbance normalized to zero hour, 7 hr: Biolog PMM2, 7 hr
[1] = Control (uninfected) NHBE cells
[2] = Virus (CA09-infected NHBE cells, MOI 1)
[3] = Virus: CA09-infected NHBE cells, MOI 1, Biolog PMM2
[4] = Virus (CA09-infected, MOI 1) NHBE cells

| Compound | 590 nm absorbance normalized to zero hour (substrate use), 1 hr [1] | 590 nm absorbance normalized to zero hour (substrate use), 2 hr [1] | 590 nm absorbance normalized to zero hour (substrate use), 3 hr [1] | 590 nm absorbance normalized to zero hour (substrate use), 4 hr [1] | 590 nm absorbance normalized to zero hour (substrate use), 6 hr [1] | 590 nm absorbance normalized to zero hour (substrate use), 8 hr [1] | 590 nm absorbance normalized to zero hour (substrate use), 9 hr [1] | 590 nm absorbance normalized to zero hour (substrate use), 10 hr [1] | 590 nm absorbance normalized to zero hour (substrate use), 11 hr [1] | Substrate use, 590 nm absorbance normalized to zero hour, 1 hr [1] | Substrate use, 590 nm absorbance normalized to zero hour, 5 hr [1] | Substrate use, 590 nm absorbance normalized to zero hour, 7 hr [1] | 590 nm absorbance normalized to zero hour (substrate use), 1 hr [3] | 590 nm absorbance normalized to zero hour (substrate use), 2 hr [3] | 590 nm absorbance normalized to zero hour (substrate use), 3 hr [3] | 590 nm absorbance normalized to zero hour (substrate use), 4 hr [3] | 590 nm absorbance normalized to zero hour (substrate use), 5 hr [3] | 590 nm absorbance normalized to zero hour (substrate use), 6 hr [3] | 590 nm absorbance normalized to zero hour (substrate use), 7 hr [3] | 590 nm absorbance normalized to zero hour (substrate use), 8 hr [3] | other results |
| --- | --- | --- | --- | --- | --- | --- | --- | --- | --- | --- | --- | --- | --- | --- | --- | --- | --- | --- | --- | --- | --- |
| O=C(O)C[C@@H](O)C(=O)O [D-Malic Acid] | 1.49 | 2.03 | 2.06 | 2.25 | 2.19 | 3.00 | 3.06 | 3.20 | 3.52 | 1.49 | 2.63 | 2.87 | 2.26 | 2.49 | 2.54 | 2.71 | 2.61 | 1.75 | 1.82 | 1.98 | 590 nm absorbance normalized to zero hour (substrate use), 0 hr [1]: 1.00; Substrate use, 590 nm absorbance normalized to zero hour, 0 hr [1]: 1.00; 590 nm absorbance normalized to zero hour (substrate use), 0 hr [2]: 1.00; 590 nm absorbance normalized to zero hour (substrate use), 1 hr [2]: 2.26; 590 nm absorbance normalized to zero hour (substrate use), 2 hr [2]: 2.49; 590 nm absorbance normalized to zero hour (substrate use), 3 hr [2]: 2.54; 590 nm absorbance normalized to zero hour (substrate use), 4 hr [2]: 2.71; 590 nm absorbance normalized to zero hour (substrate use), 5 hr [2]: 2.61; 590 nm absorbance normalized to zero hour (substrate use), 6 hr [2]: 1.75; 590 nm absorbance normalized to zero hour (substrate use), 7 hr [2]: 1.82; 590 nm absorbance normalized to zero hour (substrate use), 8 hr [2]: 1.98; 590 nm absorbance normalized to zero hour (substrate use), 9 hr [2]: 1.95; 590 nm absorbance normalized to zero hour (substrate use), 10 hr [2]: 2.27; 590 nm absorbance normalized to zero hour (substrate use), 11 hr [2]: 2.21; 590 nm absorbance normalized to zero hour (substrate use), 0 hr [3]: 1.00; 590 nm absorbance normalized to zero hour (substrate use), 9 hr [3]: 1.95; 590 nm absorbance normalized to zero hour (substrate use), 10 hr [3]: 2.27; 590 nm absorbance normalized to zero hour (substrate use), 11 hr [3]: 2.21 |
| OC[C@@H](O)[C@@H](O)[C@H](O)[C@H](O)CO [D-Mannitol] | 0.96 | 0.94 | 1.00 | 0.99 | 0.34 | 0.74 | 0.79 | 0.74 | 0.64 | 0.96 | 0.91 | 0.81 | 0.20 | 0.27 | 0.32 | 0.34 | 0.40 | 0.42 | 0.44 | 0.47 | 590 nm absorbance normalized to zero hour (substrate use), 1 hr [4]: 0.20; 590 nm absorbance normalized to zero hour (substrate use), 2 hr [4]: 0.27; 590 nm absorbance normalized to zero hour (substrate use), 3 hr [4]: 0.32; 590 nm absorbance normalized to zero hour (substrate use), 4 hr [4]: 0.34; 590 nm absorbance normalized to zero hour (substrate use), 5 hr [4]: 0.40; 590 nm absorbance normalized to zero hour (substrate use), 6 hr [4]: 0.42; 590 nm absorbance normalized to zero hour (substrate use), 7 hr [4]: 0.44; 590 nm absorbance normalized to zero hour (substrate use), 8 hr [4]: 0.47; 590 nm absorbance normalized to zero hour (substrate use), 9 hr [4]: 0.52; 590 nm absorbance normalized to zero hour (substrate use), 10 hr [4]: 0.53; 590 nm absorbance normalized to zero hour (substrate use), 11 hr [4]: 0.57; 590 nm absorbance normalized to zero hour (substrate use), 9 hr [3]: 0.52; 590 nm absorbance normalized to zero hour (substrate use), 10 hr [3]: 0.53; 590 nm absorbance normalized to zero hour (substrate use), 11 hr [3]: 0.57 |
| OC[C@H]1OC(O)[C@@H](O)[C@@H](O)[C@@H]1O (stereo partly drawn) [D-Mannose] | 2.20 | 3.33 | 4.33 | 4.90 | 6.50 | 8.13 | 9.60 | 10.60 | 12.47 | 2.20 | 6.64 | 8.62 | 1.49 | 2.09 | 2.68 | 3.06 | 4.10 | 4.57 | 4.94 | 5.47 | 590 nm absorbance normalized to zero hour (substrate use), 0 hr [1]: 1.00; Substrate use, 590 nm absorbance normalized to zero hour, 0 hr [1]: 1.00; 590 nm absorbance normalized to zero hour (substrate use), 0 hr [4]: 1.00; 590 nm absorbance normalized to zero hour (substrate use), 1 hr [4]: 1.49; 590 nm absorbance normalized to zero hour (substrate use), 2 hr [4]: 2.09; 590 nm absorbance normalized to zero hour (substrate use), 3 hr [4]: 2.68; 590 nm absorbance normalized to zero hour (substrate use), 4 hr [4]: 3.06; 590 nm absorbance normalized to zero hour (substrate use), 5 hr [4]: 4.10; 590 nm absorbance normalized to zero hour (substrate use), 6 hr [4]: 4.57; 590 nm absorbance normalized to zero hour (substrate use), 7 hr [4]: 4.94; 590 nm absorbance normalized to zero hour (substrate use), 8 hr [4]: 5.47; 590 nm absorbance normalized to zero hour (substrate use), 9 hr [4]: 6.51; 590 nm absorbance normalized to zero hour (substrate use), 10 hr [4]: 6.80; 590 nm absorbance normalized to zero hour (substrate use), 11 hr [4]: 7.75; 590 nm absorbance normalized to zero hour (substrate use), 0 hr [3]: 1.00; 590 nm absorbance normalized to zero hour (substrate use), 9 hr [3]: 6.51; 590 nm absorbance normalized to zero hour (substrate use), 10 hr [3]: 6.80; 590 nm absorbance normalized to zero hour (substrate use), 11 hr [3]: 7.75 |
